In patent publication US10239873B2, “7-azaindole or 4,7-diazaindole derivatives as IKKϵ epsilon and TBK1 inhibitor and pharmaceutical composition comprising same” (GREEN CROSS CORPORATION, priority 2015, dated 2019):

Legend:
TBK1 = biological target: T1, TBK1 (Homo sapiens, UniProt Q9UHD2); test: ADP-Glo Kinase Assay, inhibition activity on TBK1; type: biochemical
T1 construct: purchased Promega (Invitrogen is also named in the same bracket) V4158; PR8031B; V3991 (not assigned to the two kinases)
T1 sequence (Q9UHD2 1-729): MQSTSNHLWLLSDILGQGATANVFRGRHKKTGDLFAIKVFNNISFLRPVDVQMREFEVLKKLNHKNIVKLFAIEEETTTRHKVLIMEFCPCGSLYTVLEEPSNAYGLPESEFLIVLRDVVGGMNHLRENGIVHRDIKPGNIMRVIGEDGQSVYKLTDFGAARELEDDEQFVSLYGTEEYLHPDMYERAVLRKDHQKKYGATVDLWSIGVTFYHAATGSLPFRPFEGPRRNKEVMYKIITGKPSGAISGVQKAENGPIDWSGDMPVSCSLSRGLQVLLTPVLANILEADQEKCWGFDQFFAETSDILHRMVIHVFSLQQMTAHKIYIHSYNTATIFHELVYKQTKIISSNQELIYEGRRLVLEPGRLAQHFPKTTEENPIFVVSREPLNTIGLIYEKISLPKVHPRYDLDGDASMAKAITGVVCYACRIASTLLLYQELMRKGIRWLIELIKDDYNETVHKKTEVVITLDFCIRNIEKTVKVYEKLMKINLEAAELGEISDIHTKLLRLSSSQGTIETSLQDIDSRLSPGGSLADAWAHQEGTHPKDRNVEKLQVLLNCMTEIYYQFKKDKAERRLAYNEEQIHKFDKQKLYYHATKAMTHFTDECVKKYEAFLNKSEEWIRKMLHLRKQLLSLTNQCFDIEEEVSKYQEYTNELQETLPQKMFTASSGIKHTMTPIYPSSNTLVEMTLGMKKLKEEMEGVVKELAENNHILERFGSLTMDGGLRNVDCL
Procedure, shortened: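 Kinase activity measured with the ADP-Glo luminescent ADP-detection kit per manufacturer's protocol, using IKKε or TBK1 kinase enzyme systems. Reaction buffer: 40 mM Tris (pH 7.5), 20 mM MgCl2, 0.1 mg/mL BSA; luminescence read on a luminometer.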

IKKε = biological target: T2, IKKε (Homo sapiens, UniProt Q14164); test: ADP-Glo Kinase Assay, inhibition activity on IKKε; type: biochemical
T2 construct: purchased Promega and/or Invitrogen V4158; PR8031B; V3991 (not assigned to the two kinases)
T2 sequence (Q14164 1-716): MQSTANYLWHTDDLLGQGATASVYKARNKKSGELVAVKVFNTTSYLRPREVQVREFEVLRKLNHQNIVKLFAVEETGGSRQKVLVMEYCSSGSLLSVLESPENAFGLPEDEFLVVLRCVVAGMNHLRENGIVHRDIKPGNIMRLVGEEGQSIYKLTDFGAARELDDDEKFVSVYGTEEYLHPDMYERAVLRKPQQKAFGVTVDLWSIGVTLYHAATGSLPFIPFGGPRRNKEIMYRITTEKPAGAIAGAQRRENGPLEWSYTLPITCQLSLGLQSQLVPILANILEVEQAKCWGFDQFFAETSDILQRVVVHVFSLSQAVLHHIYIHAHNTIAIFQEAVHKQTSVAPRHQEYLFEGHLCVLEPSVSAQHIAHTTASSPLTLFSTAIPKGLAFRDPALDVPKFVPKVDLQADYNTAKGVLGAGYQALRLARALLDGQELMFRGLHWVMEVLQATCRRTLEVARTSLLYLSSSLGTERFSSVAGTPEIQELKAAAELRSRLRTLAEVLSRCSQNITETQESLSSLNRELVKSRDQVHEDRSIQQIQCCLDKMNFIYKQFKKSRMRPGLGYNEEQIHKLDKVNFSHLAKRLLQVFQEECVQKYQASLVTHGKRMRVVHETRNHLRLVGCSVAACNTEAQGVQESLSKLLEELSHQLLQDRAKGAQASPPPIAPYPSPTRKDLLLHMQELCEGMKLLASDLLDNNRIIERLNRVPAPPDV
Description: Inhibition activities on IKKϵ and TBK1 were evaluated using the compounds of Examples 1 to 250.
The inhibition activities on IKKϵ and TBK1 were measured by a luminometer, IKKϵ/TBK1 Kinase Enzyme System (Promega, Ca# V4158; Invitrogen, PR8031B, Promega, Ca# V3991) and ADP-Glo Kinase Assay using ADP-Glo™ Kinase Analysis Kit (Promega, Ca# V9101) and a kinase reaction buffer [40 mM Tris(pH 7.5), 20 mM MgCl2, 0.1 mg/mL BSA] in accordance with the manufacturer's protocol.

IC50 (TBK1) [nM] | IC50 (IKKε) [nM] | SMILES
2.7 | 3.2 | CC1C=C(c2c[nH]c3ncc(-c4ccc(CN5CCN(C)CC5)s4)cc23)CCN1C(=O)NC1CCCC1 (racemic) [Example 107, N-cyclopentyl-2-methyl-4-(5-(5-((4-methylpiperazin-1-yl)methyl)thiophen-2-yl)-1H-pyrrolo[2,3-b]pyridin-3-yl)-5,6-dihydropyridine-1(2H)-carboxamide]
6860 | > 10000 | CN1CC=C(c2c[nH]c3ncc(-c4ccc(CN5CCOCC5)s4)cc23)CC1 [Example 1, 4-((5-(3-(1-Methyl-1,2,3,6-tetrahydropyridin-4-yl)-1H-pyrrolo[2,3-b]pyridin-5-yl)thiophen-2-yl)methyl)morpholine]
140 | 660 | CC(=O)N1CC=C(c2c[nH]c3ncc(-c4ccc(CN5CCOCC5)s4)cc23)CC1 [Example 8, 1-(4-(5-(5-(Morpholinomethyl)thiophen-2-yl)-1H-pyrrolo[2,3-b]pyridin-3-yl)-3,6-dihydropyridin-1(2H)-yl)ethan-1-one]
330 | 510 | CCCCC(=O)N1CC=C(c2c[nH]c3ncc(-c4ccc(CN5CCOCC5)s4)cc23)CC1 [Example 9, 1-(4-(5-(5-(Morpholinomethyl)thiophen-2-yl)-1H-pyrrolo[2,3-b]pyridin-3-yl)-3,6-dihydropyridin-1(2H)-yl)pentan-1-one]
75 | 130 | CC(C)CC(=O)N1CC=C(c2c[nH]c3ncc(-c4ccc(CN5CCOCC5)s4)cc23)CC1 [Example 10, 3-Methyl-1-(4-(5-(5-(morpholinomethyl)thiophen-2-yl)-1H-pyrrolo[2,3-b]pyridin-3-yl)-3,6-dihydropyridin-1(2H)-yl)butan-1-one]
24 | 8200 | CC(C)NC(=O)N1CC=C(c2c[nH]c3ncc(-c4ccccc4)cc23)CC1 [Example 11, N-isopropyl-4-(5-phenyl-1H-pyrrolo[2,3-b]pyridin-3-yl)-5,6-dihydropyridine-1(2H)-carboxamide]
29 | 2200 | COc1ccc(-c2cnc3[nH]cc(C4=CCN(C(=O)NC(C)C)CC4)c3c2)cc1 [Example 12, N-isopropyl-4-(5-(4-methoxyphenyl)-1H-pyrrolo[2,3-b]pyridin-3-yl)-3,6-dihydropyridine-1(2H)-carboxamide]
31 | 6800 | CC(C)NC(=O)N1CC=C(c2c[nH]c3ncc(-c4ccc(F)cc4)cc23)CC1 [Example 13, 4-(5-(4-Fluorophenyl)-1H-pyrrolo[2,3-b]pyridin-3-yl)-N-isopropyl-3,6-dihydropyridine-1(2H)-carboxamide]
15 | > 10000 | COc1cccc(-c2cnc3[nH]cc(C4=CCN(C(=O)NC(C)C)CC4)c3c2)c1 [Example 14, N-isopropyl-4-(5-(3-methoxyphenyl)-1H-pyrrolo[2,3-b]pyridin-3-yl)-3,6-dihydropyridine-1(2H)-carboxamide]
11 | > 10000 | CC(C)NC(=O)N1CC=C(c2c[nH]c3ncc(-c4cccc(F)c4)cc23)CC1 [Example 15, 4-(5-(3-Fluorophenyl)-1H-pyrrolo[2,3-b]pyridin-3-yl)-N-isopropyl-3,6-dihydropyridine-1(2H)-carboxamide]
36 | 280 | Cc1ccc(-c2cnc3[nH]cc(C4=CCN(C(=O)NC(C)C)CC4)c3c2)cc1 [Example 16, N-isopropyl-4-(5-(p-tolyl)-1H-pyrrolo[2,3-b]pyridin-3-yl)-3,6-dihydropyridine-1(2H)-carboxamide]
7.8 | 21 | CC(=O)Nc1ccc(-c2cnc3[nH]cc(C4=CCN(C(=O)NC(C)C)CC4)c3c2)cc1 [Example 17, 4-(5-(4-Acetamidophenyl)-1H-pyrrolo[2,3-b]pyridin-3-yl)-N-isopropyl-3,6-dihydropyridine-1(2H)-carboxamide]
2.5 | 45 | COc1ccc(-c2cnc3[nH]cc(C4=CCN(C(=O)NC(C)C)CC4)c3c2)cc1OC [Example 18, 4-(5-(3,4-Dimethoxyphenyl)-1H-pyrrolo[2,3-b]pyridin-3-yl)-N-isopropyl-5,6-dihydropyridine-1(2H)-carboxamide]
6.4 | 7 | CC(=O)Nc1cccc(-c2cnc3[nH]cc(C4=CCN(C(=O)NC(C)C)CC4)c3c2)c1 [Example 19, 4-(5-(3-Acetamidophenyl)-1H-pyrrolo[2,3-b]pyridin-3-yl)-N-isopropyl-3,6-dihydropyridine-1(2H)-carboxamide]
32 | 46 | CC(C)NC(=O)N1CC=C(c2c[nH]c3ncc(-c4ccc(CN5CCOCC5)cc4F)cc23)CC1 [Example 20, 4-(5-(2-Fluoro-4-(morpholinomethyl)phenyl)-1H-pyrrolo[2,3-b]pyridin-3-yl)-N-isopropyl-3,6-dihydropyridine-1(2H)-carboxamide]
71 | 160 | CC(C)NC(=O)N1CC=C(c2c[nH]c3ncc(-c4cc(CN5CCOCC5)ccc4F)cc23)CC1 [Example 21, 4-(5-(2-Fluoro-5-(morpholinomethyl)phenyl)-1H-pyrrolo[2,3-b]pyridin-3-yl)-N-isopropyl-3,6-dihydropyridine-1(2H)-carboxamide]
– | 9.3 | CC(C)NC(=O)N1CC=C(c2c[nH]c3ncc(-c4ccc(CN5CCOCC5)o4)cc23)CC1 [Example 36, N-isopropyl-4-(5-(5-(morpholinomethyl)furan-2-yl)-1H-pyrrolo[2,3-b]pyridin-3-yl)-5,6-dihydropyridine-1(2H)-carboxamide]

SMILES | IC50 (TBK1) [nM] | IC50 (IKKε) [nM]
COc1ccc(-c2cnc3[nH]cc(C4=CCN(C)CC4)c3c2)cc1OC [Example 2, 5-(3,4-Dimethoxyphenyl)-3-(1-methyl-1,2,3,6-tetrahydropyridin-4-yl)-1H-pyrrolo[2,3-b]pyridine] | 9040 | > 10000
CCN1CC=C(c2c[nH]c3ncc(-c4ccc(OC)c(OC)c4)cc23)CC1 [Example 3, 5-(3,4-Dimethoxyphenyl)-3-(1-ethyl-1,2,3,6-tetrahydropyridin-4-yl)-1H-pyrrolo[2,3-b]pyridine] | 5930 | > 10000
CCCN1CC=C(c2c[nH]c3ncc(-c4ccc(OC)c(OC)c4)cc23)CC1 [Example 4, 5-(3,4-Dimethoxyphenyl)-3-(1-propyl-1,2,3,6-tetrahydropyridin-4-yl)-1H-pyrrolo[2,3-b]pyridine] | 3230 | 5140
COc1ccc(-c2cnc3[nH]cc(C4=CCN(CC(C)C)CC4)c3c2)cc1OC [Example 5, 5-(3,4-Dimethoxyphenyl)-3-(1-isobutyl-1,2,3,6-tetrahydropyridin-4-yl)-1H-pyrrolo[2,3-b]pyridine] | 1560 | 2750
CCN1CC=C(c2c[nH]c3ncc(-c4ccc(CN5CCOCC5)s4)cc23)CC1 [Example 6, 4-((5-(3-(1-Ethyl-1,2,3,6-tetrahydropyridin-4-yl)-1H-pyrrolo[2,3-b]pyridin-5-yl)thiophen-2-yl)methyl)morpholine] | 4080 | 8900
CCCN1CC=C(c2c[nH]c3ncc(-c4ccc(CN5CCOCC5)s4)cc23)CC1 [Example 7, 4-((5-(3-(1-Propyl-1,2,3,6-tetrahydropyridin-4-yl)-1H-pyrrolo[2,3-b]pyridin-5-yl)thiophen-2-yl)methyl)morpholine] | 1910 | 4250
